The NIST ThermoML archive (doi:10.1016/j.jct.2006.04.009)
± gives the expanded uncertainty stated by the source.

Conditions: Liquid

Structure (SMILES)	vapor or sublimation pressure (313.15 K) [kPa]	vapor or sublimation pressure (323.15 K) [kPa]	vapor or sublimation pressure (333.15 K) [kPa]	vapor or sublimation pressure (343.15 K) [kPa]	vapor or sublimation pressure (353.15 K) [kPa]	vapor or sublimation pressure (363.15 K) [kPa]
COC [dimethyl ether]	887 ± 10	1147 ± 13	1451 ± 17	1817 ± 21	2251 ± 26	2738 ± 32
FC(F)C(F)(F)F [pentafluoroethane]	2009 ± 24	2537 ± 30	3170 ± 37			
